# Like-named read-outs stand apart in the source and are kept apart here.
# How the values were obtained:
# HCV replicon 1A = assay: Cell-based HCV Replicon Assay A, replicon 1A
# Outline: (§1)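 2000 cells/well; 10 serial dilutions, top concentration 333.3 nM to 1.667 nM; 0.5% DMSO, 5% FBS; 3 days; lysis; multiplex TaqMan RT-PCR (NS5B/Neo plus cyclophilin), RNA from linear Ct standard curves.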
# HCV replicon 2B = assay: Cell-based HCV Replicon Assay A, replicon 2B
# Outline: as §1
# HCV replicon 1B = assay: Cell-based HCV Replicon Assay B, replicon 1B
# Outline: (§2)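 EC50 defined as the drug concentration giving a CT increase of 1 above projected baseline, from real-time RT-PCR of replicon RNA using genotype-specific primers and probes. Cells were seeded in 5% FBS, dosed after 24 h and incubated 3 days before lysis.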
# HCV replicon 1AY93H = assay: Cell-based HCV Replicon Assay A, replicon 1AY93H
# Outline: as §1
# HCV replicon 1AQ30D = assay: Cell-based HCV Replicon Assay B, replicon 1AQ30D
# Outline: as §2
# [1] = read-out: 1A Y93H IC50, replicon 1AY93H
# [2] = read-out: 1A Q30D IC50, replicon 1AQ30D
# [3] = Hepatitis C virus, read-out: 1A Q30D IC50 (nM), replicon 1AQ30D
# [4] = replicon 1AY93H, read-out: 1A Y93H IC50
# [5] = replicon 1AQ30D, read-out: 1A Q30D IC50
SMILES,IC50 (HCV replicon 1A; Hepatitis C virus) [pM],"IC50 (HCV replicon 2B; read-out: 2B IC50, replicon 2B) [pM]",IC50 (HCV replicon 1B; Hepatitis C virus) [pM],IC50 (HCV replicon 1AY93H; [1]) [pM],IC50 (HCV replicon 1AQ30D; [2]) [nM],IC50 (HCV replicon 1A) [pM],IC50 (HCV replicon 1B) [pM],IC50 (HCV replicon 1AQ30D; [3]) [nM],"IC50 (HCV replicon 2B; replicon 2B, read-out: 2B IC50) [pM]",IC50 (HCV replicon 1AY93H; [4]) [pM],IC50 (HCV replicon 1AQ30D; [5]) [nM]
"COC(=O)NC(C(=O)N1[C@@H]2C[C@@H]2C[C@H]1c1ncc(-c2ccc3c(c2)cc2n3C(c3cnc(C4(C)CC4)s3)Oc3cc(-c4cnc([C@@H]5CCCN5C(=O)[C@@H](NC(=O)OC)C(C)C)[nH]4)cc(F)c3-2)[nH]1)C1C[C@@H](C)O[C@@H](C)C1 (single isomer, unassigned) [Compound 463]",2.6,7,2.8,2,0.012,,,,,,
"COC(=O)NC(C(=O)N1[C@@H]2C[C@@H]2C[C@H]1c1ncc(-c2ccc3c(c2)cc2n3C(c3cnc(C4(C)CC4)s3)Oc3cc(-c4cnc([C@@H]5CCCN5C(=O)[C@@H](NC(=O)OC)C(C)C)[nH]4)cc(F)c3-2)[nH]1)C1C[C@@H](C)O[C@@H](C)C1 (single isomer, unassigned) [Compound 464]",,282,,197,1.23,2.8,3.4,,,,
"COC(=O)NC(C(=O)N1[C@@H]2C[C@@H]2C[C@H]1c1ncc(-c2ccc3c(c2)cc2n3C(c3cnc(C4(C)CC4)s3)Oc3cc(-c4cnc([C@@H]5CCCN5C(=O)[C@@H](NC(=O)OC)C(C)C)[nH]4)cc(F)c3-2)[nH]1)C1CCOC(C)(C)C1 (single isomer, unassigned) [Compound 465]",2.7,5,3.9,2,0.022,,,,,,
"COC(=O)NC(C(=O)N1[C@@H]2C[C@@H]2C[C@H]1c1ncc(-c2ccc3c(c2)cc2n3C(c3cnc(C4(C)CC4)s3)Oc3cc(-c4cnc([C@@H]5CCCN5C(=O)[C@@H](NC(=O)OC)C(C)C)[nH]4)cc(F)c3-2)[nH]1)C1CCOC(C)(C)C1 (single isomer, unassigned) [Compound 466]",,5,,2,0.015,2.7,3,,,,
"COC(=O)NC(C(=O)N1[C@@H]2C[C@@H]2C[C@H]1c1ncc(-c2ccc3c(c2)cc2n3C(c3cnc(C4(C)CC4)s3)Oc3cc(-c4cnc([C@@H]5CCCN5C(=O)[C@@H](NC(=O)OC)C(C)C)[nH]4)cc(F)c3-2)[nH]1)C1CCOC(C)(C)C1 (single isomer, unassigned) [Compound 467]",,158,,209,1.4,3,3.4,,,,
"COC(=O)NC(C(=O)N1[C@@H]2C[C@@H]2C[C@H]1c1ncc(-c2ccc3c(c2)cc2n3C(c3cnc(C4(C)CC4)s3)Oc3cc(-c4cnc([C@@H]5CCCN5C(=O)[C@@H](NC(=O)OC)C(C)C)[nH]4)cc(F)c3-2)[nH]1)C1CCOC(C)(C)C1 (single isomer, unassigned) [Compound 468]",,234,,155,1.23,3.3,2.9,,,,
"COC(=O)NC(C(=O)N1CCC[C@H]1c1ncc(-c2ccc3c(c2)cc2n3C(c3cnc(C4(C)CCCC4)s3)Oc3cc(-c4cnc([C@@H]5CCCN5C(=O)[C@@H](NC(=O)OC)C(C)C)[nH]4)cc(F)c3-2)[nH]1)C1C[C@@H](C)O[C@@H](C)C1 (single isomer, unassigned) [Compound 469]",3,5,3.4,2,,,,0.019,,,
"COC(=O)NC(C(=O)N1CCC[C@H]1c1ncc(-c2ccc3c(c2)cc2n3C(c3cnc(C4(C)CCCC4)s3)Oc3cc(-c4cnc([C@@H]5CCCN5C(=O)[C@@H](NC(=O)OC)C(C)C)[nH]4)cc(F)c3-2)[nH]1)C1CCOC(C)(C)C1 (single isomer, unassigned) [Compound 471]",,4,,3,0.013,2.8,3.5,,,,
"COC(=O)NC(C(=O)N1CCC[C@H]1c1ncc(-c2ccc3c(c2)cc2n3C(c3cnc(C4(C)CCCC4)s3)Oc3cc(-c4cnc([C@@H]5CCCN5C(=O)[C@@H](NC(=O)OC)C(C)C)[nH]4)cc(F)c3-2)[nH]1)C1CCOC(C)(C)C1 (single isomer, unassigned) [Compound 472]",,150,,555,2.7,2.1,3.6,,,,
"COC(=O)NC(C(=O)N1[C@@H]2C[C@@H]2C[C@H]1c1ncc(-c2ccc3c(c2)cc2n3C(c3cnc(C4(C)CCCC4)s3)Oc3cc(-c4cnc([C@@H]5CCCN5C(=O)[C@@H](NC(=O)OC)C(C)C)[nH]4)cc(F)c3-2)[nH]1)C1C[C@@H](C)O[C@@H](C)C1 (single isomer, unassigned) [Compound 473]",2.6,10,2.8,2,,,,0.011,,,
"COC(=O)NC(C(=O)N1[C@@H]2C[C@@H]2C[C@H]1c1ncc(-c2ccc3c(c2)cc2n3C(c3cnc(C4(C)CCCC4)s3)Oc3cc(-c4cnc([C@@H]5CCCN5C(=O)[C@@H](NC(=O)OC)C(C)C)[nH]4)cc(F)c3-2)[nH]1)C1CCOC(C)(C)C1 (single isomer, unassigned) [Compound 475]",,8,3.9,1,,2.4,,0.016,,,
"COC(=O)NC(C(=O)N1[C@@H]2C[C@@H]2C[C@H]1c1ncc(-c2ccc3c(c2)cc2n3C(c3cnc(C4(C)CCCC4)s3)Oc3cc(-c4cnc([C@@H]5CCCN5C(=O)[C@@H](NC(=O)OC)C(C)C)[nH]4)cc(F)c3-2)[nH]1)C1CCOC(C)(C)C1 (single isomer, unassigned) [Compound 477]",,8,,3,0.009,3.2,3.7,,,,
"CCCOCc1ncc(C2Oc3cc(-c4cnc([C@@H]5CCCN5C(=O)[C@@H](NC(=O)OC)C(C)C)[nH]4)cc(F)c3-c3cc4cc(-c5cnc([C@@H]6CCCN6C(=O)[C@@H](NC(=O)OC)C(C)C)[nH]5)ccc4n32)s1 (single isomer, unassigned) [Compound 492]",,146,,30,0.535,2.8,2.9,,,,
"CCCOCc1ncc(C2Oc3cc(-c4cnc([C@@H]5CCCN5C(=O)[C@@H](NC(=O)OC)C(C)C)[nH]4)cc(F)c3-c3cc4cc(-c5cnc([C@@H]6CCCN6C(=O)[C@@H](NC(=O)OC)C(C)C)[nH]5)ccc4n32)s1 (single isomer, unassigned) [Compound 499]",,622,,223,1.09,6.9,8.8,,,,
"CCCOCc1ncc(C2Oc3cc(-c4cnc([C@@H]5CCCN5C(=O)[C@@H](NC(=O)OC)C(C)C)[nH]4)cc(F)c3-c3cc4cc(-c5cnc([C@@H]6CCCN6C(=O)[C@@H](NC(=O)OC)C(C)C)[nH]5)ccc4n32)s1 (single isomer, unassigned) [Compound 500]",,1670,,7790,16.7,22.5,18.4,,,,
"COC(=O)N[C@H](C(=O)N1CCC[C@H]1c1ncc(-c2cc(F)c3c(c2)OC(c2cnc(C4(C)CC4)s2)n2c-3cc3cc(-c4cnc([C@@H]5CCCN5C(=O)[C@@H](NC(=O)OC)C(C)C)[nH]4)ccc32)[nH]1)C(C)C (single isomer, unassigned) [Compound 511]",9.7,95,,49,,,8.7,0.847,,,
"COC(=O)N[C@H](C(=O)N1CCC[C@H]1c1ncc(-c2cc(F)c3c(c2)OC(c2cnc(CC(C)C)s2)n2c-3cc3cc(-c4cnc([C@@H]5CCCN5C(=O)[C@@H](NC(=O)OC)C(C)C)[nH]4)ccc32)[nH]1)C(C)C (single isomer, unassigned) [Compound 514]",,,,,,2.2,3,,35,12,0.174
"COC(=O)N[C@H](C(=O)N1CCC[C@H]1c1ncc(-c2cc(F)c3c(c2)OC(c2cnc(C4CC4)s2)n2c-3cc3cc(-c4cnc([C@@H]5CC6(C)CC6N5C(=O)[C@@H](NC(=O)OC)C(C)C)[nH]4)ccc32)[nH]1)C(C)C (single isomer, unassigned) [Compound 518]",,,,,,2.5,2.4,,15,16,0.099
"COC(=O)N[C@H](C(=O)N1CCC[C@H]1c1ncc(-c2cc(F)c3c(c2)OC(c2cnc(C4CC4)s2)n2c-3cc3cc(-c4cnc([C@@H]5CC6(C)CC6N5C(=O)[C@@H](NC(=O)OC)C(C)C)[nH]4)ccc32)[nH]1)C(C)C (single isomer, unassigned) [Compound 519]",,,,,,3.1,2.1,,598,669,0.951
"COC(=O)N[C@H](C(=O)N1CCC[C@H]1c1ncc(-c2cc(F)c3c(c2)OC(c2cnc(CC(C)(C)C)s2)n2c-3cc3cc(-c4cnc([C@@H]5CCCN5C(=O)[C@@H](NC(=O)OC)C(C)C)[nH]4)ccc32)[nH]1)C(C)C (single isomer, unassigned) [Compound 522]",,,,,,1.4,1,,15,11,0.163
"COC(=O)N[C@H](C(=O)N1CCC[C@H]1c1ncc(-c2cc(F)c3c(c2)OC(c2cnc(C4CCOCC4)s2)n2c-3cc3cc(-c4cnc([C@@H]5CCCN5C(=O)[C@@H](NC(=O)OC)C(C)C)[nH]4)ccc32)[nH]1)C(C)C (single isomer, unassigned) [Compound 531]",2.5,56,3.8,22,,,,0.328,,,
